{"source": "patent US8299022B2", "about": "“Analogs of ghrelin substituted at the N-terminal” (IPSEN Pharma S.A.S., priority 2006, dated 2012)", "key": {"human GSH receptor": {"molecular_target": "T1, human GSH receptor (Homo sapiens, UniProt Q92847)", "T1 construct": "The full length human GHS-R was subcloned into the mammalian expression vector pcDNA 3.1; expressed in transfected cells", "T1 sequence (Q92847 whole entry)": "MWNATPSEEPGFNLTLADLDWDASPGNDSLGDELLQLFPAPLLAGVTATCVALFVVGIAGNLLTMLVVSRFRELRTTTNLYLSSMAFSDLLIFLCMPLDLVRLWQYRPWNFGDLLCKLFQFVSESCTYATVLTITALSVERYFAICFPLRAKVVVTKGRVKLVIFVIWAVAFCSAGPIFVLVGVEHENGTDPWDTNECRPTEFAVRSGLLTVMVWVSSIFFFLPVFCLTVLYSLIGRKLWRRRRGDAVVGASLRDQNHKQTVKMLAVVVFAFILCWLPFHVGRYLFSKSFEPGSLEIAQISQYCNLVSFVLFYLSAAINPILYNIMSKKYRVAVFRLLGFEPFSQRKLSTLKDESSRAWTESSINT", "assay": "In vitro GSH receptor mediated intracellular iCa2+ mobilization (Fura-2AM, CHO-K1 cells)", "assay_type": "cell-based", "conditions": "CHO-K1 cells expressing the human receptor, 37° C.", "protocol": "2A. In vitro GSH Receptor Mediated Intracellular iCa^2+Mobilization\nThe foregoing CHO-K1 cells expressing the human GSH receptor were harvested by incubating in a 0.3% EDTA/phosphate buffered saline solution at 25° C.; the cells were then washed 2 times by centrifugation. The washed cells were resuspended in Hank's buffered saline solution (HBSS) for loading of the fluorescent Ca^2+ indicator Fura-2AM. Cell suspensions of approximately 10^6 cells/ml were incubated with 2 μM Fura-2AM for about 30 minutes at about 25° C. Unloaded Fura-2AM was removed by centrifugation twice in HBSS and the final suspensions were transferred to a spectrofluorometer (model Hitachi F-2000® Tokyo, Japan) equipped with a magnetic stirring mechanism and a temperature-regulated cuvette holder. After equilibration to 37° C., the ghrelin analogs were added for measurement of intracellular Ca^2+ mobilization. The excitation and emission wavelengths were 340 and 510 nm, respectively. An increase in the amount of Ca^2+ measured was indicative of agonist activity of a tested peptide while a decrease in the amount (or lack of) Ca^2+ measure was indicative of antagonist activity of a tested peptide."}, "[1]": {"assay": "Rat plasma ½ life (stability in plasma in a rat model)", "assay_type": "in vitro ADME", "protocol": "A selection of the preferred embodiments listed above was analyzed to determine stability, i.e. ½ life in plasma in a rat model using techniques known to those skilled in the art."}, "[2]": {"conditions": "rat, in vivo; cited from earlier work"}, "[3]": {"conditions": "human, in vivo; cited from earlier work"}}, "note": "Read-outs that look alike come from different tables or passages of the source. * marks the point of attachment. Octanoyl = CCCCCCCC(=O)*", "data": [{"compound": "CCCCCCNC(=O)CC[C@H](NC(=O)C(C)(C)NC(=O)C1CCN(C(C)=O)CC1)C(=O)N[C@@H](Cc1ccccc1)C(=O)N[C@@H](CC(C)C)C(=O)N[C@@H](CO)C(=O)N1CCC[C@H]1C(=O)N[C@@H](CCC(=O)O)C(=O)N[C@@H](Cc1c[nH]cn1)C(=O)NC(C)(C)C(=O)N[C@@H](CCCNC(=N)N)C(=O)N[C@H](C(=O)N[C@@H](CCC(N)=O)C(=O)N[C@@H](CCC(N)=O)C(=O)N[C@@H](CCCNC(=N)N)C(=O)N[C@@H](CCCCN)C(=O)N[C@@H](CCC(=O)O)C(=O)N[C@@H](CO)C(=O)N[C@@H](CCCCN)C(=O)N[C@@H](CCCCN)C(=O)N1CCC[C@H]1C(=O)N1CCC[C@H]1C(=O)N[C@@H](C)C(=O)N[C@@H](CCCCN)C(=O)N[C@@H](CC(C)C)C(=O)N[C@@H](CCC(N)=O)C(=O)N1CCC[C@H]1C(=O)N[C@@H](CCCNC(=N)N)C(N)=O)C(C)C", "note": "[Example 1, (Ac-Inp^1, Aib^2, 10, Glu(NH-hexyl)^3)hGhrelin(1-28)-NH2]", "values": [{"measurement": "agonist/antagonist activity at the ghrelin receptor (intracellular Ca2+ mobilization)", "setting": "human GSH receptor", "value": "antagonistic activity"}, {"measurement": "Rat Plasma ½ life", "setting": "[1]", "value": 9.4, "unit": "h"}]}, {"compound": "CCCCCCNC(=O)CC[C@H](NC(=O)C(C)(C)NC(=O)C1CCNCC1)C(=O)N[C@@H](Cc1ccccc1)C(=O)N[C@@H](CC(C)C)C(=O)N[C@@H](CO)C(=O)N1CCC[C@H]1C(=O)N[C@@H](CCC(=O)O)C(=O)N[C@@H](Cc1c[nH]cn1)C(=O)NC(C)(C)C(=O)N[C@@H](CCCNC(=N)N)C(=O)N[C@H](C(=O)N[C@@H](CCC(N)=O)C(=O)N[C@@H](CCC(N)=O)C(=O)N[C@@H](CCCNC(=N)N)C(=O)N[C@@H](CCCCN)C(=O)N[C@@H](CCC(=O)O)C(=O)N[C@@H](CO)C(=O)N[C@@H](CCCCN)C(=O)N[C@@H](CCCCN)C(=O)N1CCC[C@H]1C(=O)N1CCC[C@H]1C(=O)N[C@@H](C)C(=O)N[C@@H](CCCCN)C(=O)N[C@@H](CC(C)C)C(=O)N[C@@H](CCC(N)=O)C(=O)N1CCC[C@H]1C(=O)N[C@@H](CCCNC(=N)N)C(N)=O)C(C)C", "note": "[Example 3, (Inp^1, Aib^2, 10, Glu(NH-hexyl)^3)hGhrelin(1-28)-NH2]", "values": [{"measurement": "agonist/antagonist activity at the ghrelin receptor (intracellular Ca2+ mobilization)", "setting": "human GSH receptor", "value": "antagonistic activity"}, {"measurement": "Rat Plasma ½ life", "setting": "[1]", "value": 10.6, "unit": "h"}]}, {"compound": "H-Gly-Ser-Ser-Phe-Leu-Ser-Pro-Glu-His-Gln-Arg-Val-Gln-Gln-Arg-Lys-Glu-Ser-Lys-Lys-Pro-Pro-Ala-Lys-Leu-Gln-Pro-Arg-NH2 (H-GSS(Octanoyl)FLSPEHQRVQQRKESKKPPAKLQPR-NH2; listed as Homo sapiens) [ghrelin]", "values": [{"measurement": "apparent half-life of exogenous ghrelin", "setting": "[2]", "value": 30, "unit": "min"}, {"measurement": "apparent half-life of exogenous ghrelin", "setting": "[3]", "value": 10, "unit": "min"}]}]}
